Assay: xn = mol fraction of the nth substance listed, in the solute-free solvent

CC(=O)Nc1ccc(OC(=O)c2ccccc2OC(C)=O)cc1 + CN(C)C=O + O
solubility (g/100 g solution)
Settings	278.15 K	283.15 K	288.15 K	293.15 K	298.15 K	303.15 K	308.15 K	313.15 K	318.15 K
x2 = 0.02666	0.00846	0.0119	0.016	0.0222	0.0297	0.0399	0.0526	0.0698	0.0891
x2 = 0.05806	0.0473	0.0628	0.084	0.109	0.141	0.18	0.232	0.291	0.365
x2 = 0.09556	0.235	0.295	0.376	0.471	0.571	0.703	0.866	1.05	1.27
x2 = 0.1412	0.633	0.777	0.947	1.16	1.39	1.68	1.97	2.35	2.77
x2 = 0.1978	1.3	1.55	1.82	2.17	2.52	2.94	3.41	3.9	4.5
x2 = 0.27	2.25	2.63	3.06	3.49	4.01	4.6	5.22	5.91	6.7
x2 = 0.3652	3.47	3.96	4.51	5.08	5.72	6.42	7.14	7.91	8.74
x2 = 0.4965	4.8	5.32	5.97	6.58	7.24	7.99	8.71	9.48	10.3
x2 = 0.6893	6.08	6.62	7.2	7.86	8.46	9.14	9.88	10.5	11.3

O=c1[nH]cc(F)c(=O)[nH]1 + CO + C1CCOC1
solubility (g/100 g solution)
Settings	283.15 K	288.15 K	293.15 K	298.15 K	303.15 K	308.15 K	313.15 K	318.15 K	323.15 K
x2 = 0.36	0.152	0.171	0.193	0.219	0.254	0.294	0.348	0.403	0.473
x2 = 0.6	0.283	0.317	0.356	0.407	0.472	0.546	0.639	0.745	0.862
x2 = 0.7714	0.423	0.483	0.552	0.636	0.73	0.876	1.04	1.23	1.42
x2 = 0.9	0.58	0.665	0.789	0.914	1.05	1.25	1.43	1.65	1.85

O=C1NS(=O)(=O)c2ccccc21 + CO + CC#N
solubility (g/100 g solution)
Settings	x2 = 0.1002	x2 = 0.2003	x2 = 0.2998	x2 = 0.4002	x2 = 0.4998	x2 = 0.6003	x2 = 0.7001	x2 = 0.7995	x2 = 0.9003
293.15 K	5.52	7.2	8.84	9.66	10	10.1	9.63	8.67	7.25
298.15 K	5.88	7.96	9.73	10.6	11	11.1	10.6	9.56	8.07
303.15 K	6.65	9.04	10.9	11.9	12.5	12.5	12.1	11	9.1
308.15 K	7.35	9.93	12.1	13.2	13.8	14	13.6	12.1	10.1
313.15 K	8.31	11.2	13.3	14.7	15.4	15.6	15.1	13.9	11.7
318.15 K	9.32	12.7	15.2	16.8	17.6	17.7	17.2	15.8	13.3
323.15 K	10.6	14.1	16.7	18.4	19.3	19.6	19.1	17.6	15.1

Source: the CheMixHub drug solubility set
